Test results taken from patent US20120121745A1, “AGENTS FOR THE CONTROL OF […]” (MARRONE BIO INNOVATIONS, INC., priority 2010, published 2012).

Tested on: quagga mussels
Assay: Molluscicidal effects of compounds isolated from Pseudomonas broth (live mussel jar-test bioassay, procedures of US 20100266717)
Type: in vivo
Details: Conc 16 μg/ml
Procedure: The culture broth derived from the 10-L fermentation P. fluorescens in FM2-growth media is first centrifuge to separate the cells pellet and supernatant. The supernatant and the cell pellet were extracted separately using Amberlite XAD-7 resin (Asolkar et al., 2006) by shaking the cell suspension/supernatant with resin at 225 rpm for two hours at room temperature. The resin and cell mass are collected by filtration through cheesecloth and washed with DI water to remove salts. The resin, cell mass, and cheesecloth are then soaked for 2 h in acetone/methanol (50/50) after which the acetone/methanol is filtered and dried under vacuum using rotary evaporator to give two separate crude extract.(one for supernatant and other for cell pellets). The crude extracts were then fractionated separately by using reversed-phase C18 vacuum liquid chromatography (H2O/CH3OH; gradient […] to 0:100%) to give 7 fractions. These fractions are then concentrated to dryness using rotary evaporator and the resulting dry residues are screened for biological activity using both a live mussel jar-test bioassay with quagga mussels as well as a cell-based assay with a freshwater snail embryo cell line (Biomphalaria glabrata). The active fractions are then subjected to reversed phase HPLC (Spectra System P4000 (Thermo Scientific) to give pure compounds, which are then screened in above mentioned bioassays to locate/identify the active compounds. To confirm the identity of the compound, additional spectroscopic data such as LC/MS and NMR is recorded.
The potency of compounds isolated from Pseudomonas broth is tested using procedures described in the US Patent Application Pub. No. 20100266717.

Structure (SMILES) | % mortality 24 hr [%] | % mortality 48 hr [%] | % mortality 72 hr [%] | % mortality 96 hr [%]
CCCCCC/C=C/CCCCCCCC(=O)O [9-hexadecenoic acid] | 20 ± 14.1 | 25.5 ± 7.1 | 30 ± 14.1 | 30 ± 14.1
CCCCCC[C@@H](O)C/C=C\CCCCCCCC(=O)O [Ricinoleic acid, ricinoleic acid] | 20 ± 0 | 20 ± 0 | 20 ± 0 | 20 ± 0
